Assay results reported in ChEMBL document CHEMBL1151438, “In vitro resistance study of rupintrivir, a novel inhibitor of human rhinovirus 3C protease” (Antimicrob Agents Chemother, 2007).

Columns and labels:
rhinovirus B14 [1] = assay: Ratio of EC50 for HRV14 with 3C protease with T129A, T131T/A, T143P mutation infected in human H1-HeLa cells after 5 passages for 22 days to EC50 for wild type HRV14 infected in human H1-HeLa cells; type: functional
rhinovirus B14 [2] = assay: Antiviral activity against HRV14 with 3C protease A121A/V, T129A, T131A, N132S, Y139Y/H, T143P mutation infected in human H1-HeLa cells assessed as virus-induced cytopathic effect after 12 passages for 72 days by XTT assay; type: functional, organism-based; conditions: Rhinovirus B
Human rhinovirus sp. = assay: Ratio of EC50 for HRV Hanks infected in human H1-HeLa cells after 1 passage for 7 days to EC50 for wild type HRV Hanks infected in human H1-HeLa cells; type: functional
rhinovirus B14 [3] = assay: Ratio of EC50 for HRV14 infected in human H1-HeLa cells after 3 passages for 14 days to EC50 for wild type HRV14 infected in human H1-HeLa cells; type: functional
rhinovirus B14 [4] = assay: Antiviral activity against 0.02 MOI HRV14 infected in human H1-HeLa cells assessed as cell killing after 5 passages for 22 days by XTT assay; type: functional
rhinovirus B14 [5] = assay: Ratio of EC50 for HRV14 infected in human H1-HeLa cells after 7 passages for 33 days to EC50 for wild type HRV14 infected in human H1-HeLa cells; type: functional
rhinovirus B14 [6] = assay: Ratio of EC50 for HRV14 with 3C protease with T129A, T131A, T143P, Y139Y/H mutation infected in human H1-HeLa cells after 10 passages for 55 days to EC50 for wild type HRV14 infected in human H1-HeLa cells; type: functional
rhinovirus B14 [7] = assay: Ratio of EC50 for HRV14 with 3C protease T129A, T131T/A, T143P mutation infected in human H1-HeLa cells after 4 passages for 17 days to EC50 for wild type HRV14 infected in human H1-HeLa cells; type: functional
rhinovirus A39 [8] = assay: Ratio of EC50 for HRV39 infected in human H1-HeLa cells after 3 passages for 14 days to EC50 for wild type HRV39 infected in human H1-HeLa cells; type: functional
rhinovirus B14 [9] = assay: Antiviral activity against wild type HRV14 infected in human H1-HeLa cells assessed as virus-induced cytopathic effect after 3 days by XTT assay; type: functional, organism-based; conditions: Rhinovirus B, 72 h
rhinovirus A2 [10] = assay: Ratio of EC50 for HRV2 infected in human H1-HeLa cells after 4 passages for 24 days to EC50 for wild type HRV2 infected in human H1-HeLa cells; type: functional
rhinovirus A2 [11] = assay: Antiviral activity against HRV2 with 3C protease N165T mutation infected in human H1-HeLa cells assessed as virus-induced cytopathic effect after 6 passages for 37 days by XTT assay; type: functional, organism-based; conditions: Rhinovirus A
rhinovirus A39 [12] = assay: Ratio of EC50 for HRV39 infected in human H1-HeLa cells after 4 passages for 24 days to EC50 for wild type HRV39 infected in human H1-HeLa cells; type: functional

CCOC(=O)/C=C/[C@H](C[C@@H]1CCNC1=O)NC(=O)[C@@H](CC(=O)[C@@H](NC(=O)c1cc(C)on1)C(C)C)Cc1ccc(F)cc1 [RUPINTRIVIR]
Ratio EC50 (rhinovirus B14 [1]): 5
EC50 (rhinovirus B14 [2]): 414 nM
Ratio EC50 (Human rhinovirus sp.): 1
Ratio EC50 (rhinovirus B14 [3]): 5
Activity (rhinovirus B14 [4]): 88.2%
Ratio EC50 (rhinovirus B14 [5]): 30
Ratio EC50 (rhinovirus B14 [6]): 15
Ratio EC50 (rhinovirus B14 [7]): 11
Ratio EC50 (rhinovirus A39 [8]): 6
EC50 (rhinovirus B14 [9]): 21 nM
Ratio EC50 (rhinovirus A2 [10]): 5
EC50 (rhinovirus A2 [11]): 67 nM
Ratio EC50 (rhinovirus A39 [12]): 6
